Assay results reported in US20260103473A1 (Avanc Pharmaceutical Co., Ltd., priority 2022, published 2026).
Where a name gives a salt, the structure may show the parent alone. Each block holds one compound with its values, some of them ahead of it.

How the values were obtained:
Format in all cases: physicochemical
[1] = Moisture absorption study of crystal forms by dynamic vapor sorption (DVS) with XRPD afterwards; details: for weight increase at 80% RH during the adsorption process / weight increase at 95% RH: DVS, with reference to the mass at 50% RH; for XRPD pattern after DVS testing: after humidity cycle 50%-95%-50%
Protocol: Dynamic vapor sorption and desorption analysis of crystal forms were performed using DVS Intrinsic (SMS, UK) to evaluate the hygroscopicity of the crystal forms. The gradient mode was used for the test. The humidity change was 50%-95%-50%. The humidity change amount of each gradient was 15%. The gradient endpoint was determined in the dm/dt manner, with dm/dt less than 0.002% and maintained for 10 minutes as the gradient endpoint, or the maximum maintenance time of each gradient was 60 min. After the test was completed, XRPD analysis was performed on the sample to confirm whether the solid form changed.

[2] = Stability study of crystal forms (XRPD characterization); details: high temperature (60° C.), high humidity (25° C./92.5% RH), illumination (25° C./4500 Lux), accelerated (40° C./75% RH); up to 15 days
Protocol: Stability studies under conditions of high temperature (60° C.), high humidity (25° C./92.5% RH), illumination (25° C./4500 Lux), and accelerated condition (40° C./75% RH) were performed on the crystal forms of the compound of formula (I). Samples were taken for XRPD characterization on the 7th and 15th days respectively.
The crystal form G was stored at room temperature for 1 day.

[3] = Hygroscopicity of salts of the compound of formula (I) (weight gain at 95% humidity); details: humidity 50% raised to 95% in increments of 15%, 60 min each
Protocol: The compound of formula (I) was placed in a humid environment, wherein the initial humidity of the environment was 50%, and the humidity was increased to 95% in increments of 15%. The maintenance time for each humidity gradient was 60 min. After the ambient humidity was maintained at 95% for 60 min, the weight gain of each salt form was tested to determine the hygroscopicity of the corresponding salt form.
According to the test procedures of Test Example 2, the solubility of the monocitrate salt and dicitrate salt of the compound of formula (I) were respectively tested.

[4] = Dynamic solubility test in biological media and water; details: for solubility at 0.5 h / solubility at 2 h / solubility at 24 h: thermodynamic from solid
Excerpt: Wherein, FaSSIF could be used to simulate the intestinal fluid in the small intestine in the human pre-prandial hunger state; FeSSIF could be used to simulate the intestinal fluid in the small intestine in the human post-prandial satiety state; FaSSGF could be used to simulate the stomach in the empty stomach in the human hunger state.

[5] = Description of crystal form A: hygroscopicity and solubility in solvents
[6] = Test of solubility of salts of the compound of formula (I) in water; details: room temperature, Table 10; for Solution state: after addition of water; for solubility: thermodynamic from solid, water, monocitrate vs dicitrate
Protocol: About 4-20 mg of salt of the compound of formula (I) was weighed, and the salt was added to the EP tube. A certain amount of solvent was added successively at room temperature. The solution was stirred, and it was observed whether the solid was completely dissolved. If the solid had not been completely dissolved after 10.0 mL of solvent was added, the experiment was stopped. The solubility of the compound in the solvent was estimated based on the volume of solvent used when the solid was completely dissolved.

[7] = monocitrate vs dicitrate, Table 11

Compound: CN1CCN(C2CCN(c3ccc(Nc4ncc5sc(C(=O)N(C)C)c(C6CCCC6)c5n4)nc3)CC2)CC1 [crystal form C]
weight increase at 80% RH during the adsorption process [1]: 0.42%
weight increase at 95% RH [1]: 3.45%
XRPD pattern after DVS testing [1]: did not change significantly
crystal form transformation by XRPD [2]: did not undergo crystal form transformation

Compound: CN1CCN(C2CCN(c3ccc(Nc4ncc5sc(C(=O)N(C)C)c(C6CCCC6)c5n4)nc3)CC2)CC1 [crystal form D]
weight increase at 80% RH during the adsorption process [1]: 0.85%
weight increase at 95% RH [1]: 4.45%
XRPD pattern after DVS testing [1]: did not change significantly
crystal form transformation by XRPD [2]: did not undergo significant crystal form transformation

Weight gain at 95% humidity ([3]; Table 9): 8.18%
Compound: L-Tartrate

Compound: CN1CCN(C2CCN(c3ccc(Nc4ncc5sc(C(=O)N(C)C)c(C6CCCC6)c5n4)nc3)CC2)CC1 [crystal form A]
XRPD of the remaining solid ([4]; FaSSGF): No solid remained
Final pH ([4]; FaSSGF, initial pH 1.6): 2.5
XRPD of the remaining solid ([4]; FaSSIF): No solid remained
Final pH ([4]; FaSSIF, initial pH 6.5): 4.3
XRPD of the remaining solid ([4]; FeSSIF): No solid remained
Final pH ([4]; FeSSIF, initial pH 5.0): 4.6
Final pH ([4]; Water): 3.8
XRPD of the remaining solid ([4]; Water): No solid remained
solubility at 0.5 h ([4]; fassgf or other biorelevant, FaSSGF, pH 1.6, 0.5 h): > 5470 µg/mL
solubility at 2 h ([4]; fassgf or other biorelevant, FaSSGF, pH 1.6, 2 h): > 5480 µg/mL
solubility at 24 h ([4]; fassgf or other biorelevant, FaSSGF, pH 1.6, 24 h): > 5380 µg/mL
solution state after suspension for 24 h ([4]; four media (FaSSIF, FeSSIF, FaSSGF, water)): still clear
time to dissolve ([4]; suspended in four media (FaSSIF, FeSSIF, FaSSGF, water)): ≤ 0.5 h
solubility at 0.5 h ([4]; FaSSIF, pH 6.5, 0.5 h): > 5150 µg/mL
solubility at 2 h ([4]; FaSSIF, pH 6.5, 2 h): > 5110 µg/mL
solubility at 24 h ([4]; FaSSIF, pH 6.5, 24 h): > 5180 µg/mL
solubility at 0.5 h ([4]; FeSSIF, pH 5.0, 0.5 h): > 5460 µg/mL
solubility at 2 h ([4]; FeSSIF, pH 5.0, 2 h): > 5480 µg/mL
solubility at 24 h ([4]; FeSSIF, pH 5.0, 24 h): > 5470 µg/mL
solubility at 0.5 h ([4]; Water, 0.5 h): > 5540 µg/mL
solubility at 2 h ([4]; Water, 2 h): > 5450 µg/mL
solubility at 24 h ([4]; Water, 24 h): > 5480 µg/mL
hygroscopicity (description) [5]: slightly hygroscopic
solubility (description) ([5]; 0.1 mol/L hydrochloric acid solution): readily soluble
solubility (description) ([5]; Water): readily soluble
solubility (description) ([5]; acetic acid): readily soluble
solubility (description) ([5]; ethanol): nearly insoluble
solubility (description) ([5]; methanol): slightly soluble
weight increase at 80% RH during the adsorption process [1]: 0.25%
weight increase at 95% RH [1]: 0.64%
XRPD pattern after DVS testing [1]: did not change significantly
crystal form transformation by XRPD [2]: without any crystal form transformation occurring

Compound: CN1CCN(C2CCN(c3ccc(Nc4ncc5sc(C(=O)N(C)C)c(C6CCCC6)c5n4)nc3)CC2)CC1 [Dicitrate salt]
Solution state [6]: clear
solubility [6]: > 33000 µg/mL
Weight gain at 95% humidity [3, 7]: 0.64%

Compound: CN1CCN(C2CCN(c3ccc(Nc4ncc5sc(C(=O)N(C)C)c(C6CCCC6)c5n4)nc3)CC2)CC1.O=C(O)CC(O)(CC(=O)O)C(=O)O [Monocitrate salt]
Solution state [6]: clear
solubility [6]: > 33000 µg/mL
Weight gain at 95% humidity [3, 7]: 3.45%

Compound: CN1CCN(C2CCN(c3ccc(Nc4ncc5sc(C(=O)N(C)C)c(C6CCCC6)c5n4)nc3)CC2)CC1 [crystal form B]
weight increase at 80% RH during the adsorption process [1]: 0.24%
weight increase at 95% RH [1]: 0.69%
XRPD pattern after DVS testing [1]: did not change significantly
crystal form transformation by XRPD [2]: did not undergo crystal form transformation
